Measurements as given in patent publication US20150274664A1 (MERCK SHARP & DOHME CORP., priority 2012, published 2015).

Each compound was assayed against T1, human GPR119 (Homo sapiens, UniProt Q8TDV5) (assay: Measurement of GPR119 signaling using LANCE 384-well cAMP kit (LCMP assay)). Details: HEK293 cells stably transfected with human GPR119.
T1 construct: expressed in transfected cells; host or cells: HEK293
T1 sequence (Q8TDV5 1-335): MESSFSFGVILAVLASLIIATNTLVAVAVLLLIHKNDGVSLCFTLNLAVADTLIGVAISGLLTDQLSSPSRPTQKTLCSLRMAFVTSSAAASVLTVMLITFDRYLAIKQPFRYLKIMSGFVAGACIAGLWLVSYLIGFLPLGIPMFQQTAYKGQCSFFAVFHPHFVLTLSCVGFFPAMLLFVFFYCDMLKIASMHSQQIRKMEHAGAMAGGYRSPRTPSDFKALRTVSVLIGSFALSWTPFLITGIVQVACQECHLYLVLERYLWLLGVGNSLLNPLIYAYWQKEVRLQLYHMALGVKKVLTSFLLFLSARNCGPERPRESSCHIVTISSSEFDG
Assay type: cell-based
Experimental: Measurement of GPR119 Signaling Using LANCE 384-Well cAMP Kit (LCMP Assay)
Human embryonic kidney (HEK) 293 cell lines stably transfected with human GPR119 were maintained in DMEM media containing FBS, penicillin-streptomycin, HEPES, and hygromycin. For the cAMP assay, the transfected cells were harvested using a non-enzymatic cell dissociation solution (GIBCO 2672), pelleted and resuspended in stimulation buffer (DMEM, 25 mM Hepes, 0.1% BSA, pH 7.4 in the presence of 100 μM phosphodiesterase inhibitors). The adenylate cyclase assay was constructed following the LANCE™ cAMP Kit (Perkin Elmer, AD0264) instructions. Briefly, cells with Alexa Fluor® 647-anti cAMP antibody were incubated with 10 point series diluted test article in stimulation buffer with a final concentration of 2.5% DMSO for 45 minutes. The reaction was stopped by incubating with the supplied detection buffer containing the europium chelate of the Eu-SA/Biotin-cAMP tracer for 3 hours. The assay was performed in duplicate in a 384 well plate for duplicate plates. Fluorescence at 665 nm was measured using a PHERAstar instrument. Basal activity was determined using a DMSO control and maximum response was defined as cAMP stimulation produced by an internal agonist control. Standard cAMP concentrations were assayed concurrently for conversion of fluorescence signal to cAMP level. The data was analyzed using 4-parameter curve fit in Microsoft Excel.

Row | Compound | EC50 [nM]
1 | COCc1noc(N2CCC([C@@H]3C[C@H]3CCOc3cc(F)c(CC(=O)N4CCC4)c(F)c3)CC2)n1 [Example 83, 1-(azetidin-1-yl)-2-(2,6-difluoro-4-(2-((1S,2S)-2-(1-(3-(methoxymethyl)-1,2,4-oxadiazol-5-yl)piperidin-4-yl)cyclopropyl)ethoxy)phenyl)ethanone] | 5.2
2 | CC1(OC(=O)N2CCC([C@H]3C[C@@H]3CCOc3ccc(-n4cnnn4)cc3F)CC2)CC1 [Example 107, 1-methylcyclopropyl 4-((1R,2R)-2-(2-(2-fluoro-4-(1H-tetrazol-1-yl)phenoxy)ethyl)cyclopropyl)piperidine-1-carboxylate] | 17
3 | O=C(Cc1ccc(OCC[C@H]2C[C@@H]2C2CCN(c3ncc(Cl)cn3)CC2)cc1F)N1CCC1 [Example 34, 1-(azetidin-1-yl)-2-(4-(2-((1R,2R)-2-(1-(5-chloropyrimidin-2-yl)piperidin-4-yl)cyclopropyl)ethoxy)-2-fluorophenyl)ethanone] | 0.64
4 | CCc1cnc(N2CCC([C@H]3C[C@@H]3CCNc3ncc(-n4cnnn4)cn3)CC2)nc1 [Example 125, N-(2-((1R,2S)-2-(1-(5-ethylpyrimidin-2-yl)piperidin-4-yl)cyclopropyl)ethyl)-5-(1H-tetrazol-1-yl)pyrimidin-2-amine] | 18
5 | CCc1cnc(N2CCC([C@H]3C[C@@H]3CCOc3ccc(CC(=O)N(C)C)c(F)c3)CC2)nc1 [Example 47, 2-(4-(2-((1R,2R)-2-(1-(5-ethylpyrimidin-2-yl)piperidin-4-yl)cyclopropyl)ethoxy)-2-fluorophenyl)-N,N-dimethylacetamide] | 2.9
6 | COCc1cnc(N2CCC([C@H]3C[C@@H]3COCc3ccc(S(C)(=O)=O)cc3)CC2)nc1 [Example 12, 5-(methoxymethyl)-2-(4-((1R,2S)-2-(((4-(methylsulfonyl)benzyl)oxy)methyl)cyclopropyl)piperidin-1-yl)pyrimidine] | 14
7 | COCc1noc(N2CCC([C@H]3C[C@@H]3CCOc3cc(F)c(CC(=O)N4CCC4)c(F)c3)CC2)n1 [Example 80, 1-(azetidin-1-yl)-2-(2,6-difluoro-4-(2-((1R,2R)-2-(1-(3-(methoxymethyl)-1,2,4-oxadiazol-5-yl)piperidin-4-yl)cyclopropyl)ethoxy)phenyl)ethanone] | 2.4
8 | CCc1cnc(N2CCC([C@@H]3C[C@H]3CCOc3ccc(CC(=O)N4CCC4)cc3F)CC2)nc1 [Example 62, 1-(azetidin-1-yl)-2-(4-(2-((1S,2S)-2-(1-(5-ethylpyrimidin-2-yl)piperidin-4-yl)cyclopropyl)ethoxy)-3-fluorophenyl)ethanone] | 11
9 | CCc1cnc(N2CCC([C@@H]3C[C@H]3CCOc3ccc(CC(=O)N4CCC4)c(F)c3)CC2)nc1 [Example 36, 1-(azetidin-1-yl)-2-(4-(2-((1S,2S)-2-(1-(5-ethylpyrimidin-2-yl)piperidin-4-yl)cyclopropyl)ethoxy)-2-fluorophenyl)ethanone] | 5.5
10 | CC(C)c1noc(N2CCC([C@@H]3C[C@H]3CCOc3ccc(S(C)(=O)=O)c(F)c3)CC2)n1 [Example 65, 5-(4-((1S,2S)-2-(2-(3-fluoro-4-(methylsulfonyl)phenoxy)ethyl)cyclopropyl)piperidin-1-yl)-3-isopropyl-1,2,4-oxadiazole] | 7.7
11 | CCc1cnc(N2CCC([C@@H]3C[C@H]3CCOc3ccc(CC(=O)N(C)C)c(F)c3)CC2)nc1 [Example 46, 2-(4-(2-((1S,2S)-2-(1-(5-ethylpyrimidin-2-yl)piperidin-4-yl)cyclopropyl)ethoxy)-2-fluorophenyl)-N,N-dimethylacetamide] | 4.4
12 | COCc1noc(N2CCC([C@@H]3C[C@H]3CCOc3cc(F)c(CC(=O)N(C)C)c(F)c3)CC2)n1 [Example 78, 2-(2,6-difluoro-4-(2-((1S,2S)-2-(1-(3-(methoxymethyl)-1,2,4-oxadiazol-5-yl)piperidin-4-yl)cyclopropyl)ethoxy)phenyl)-N,N-dimethylacetamide] | 6.7
13 | CS(=O)(=O)c1ccc(OCC[C@@H]2C[C@H]2C2CCN(c3ncc(Cl)cn3)CC2)c(F)c1 [Example 29, 5-chloro-2-(4-((1S,2S)-2-(2-(2-fluoro-4-(methylsulfonyl)phenoxy)ethyl)cyclopropyl)piperidin-1-yl)pyrimidine] | 17

More lines, in order of falling EC50, values ahead:

Row | EC50 [nM] | Compound
14 | 22 | CS(=O)(=O)c1ccc(OCC[C@H]2C[C@@H]2C2CCN(c3ncc(Cl)cn3)CC2)nc1 [Example 109, 5-chloro-2-(4-((1R,2R)-2-(2-(5-(methylsulfonyl)pyridin-2-yloxy)ethyl)cyclopropyl)piperidin-1-yl)pyrimidine]
15 | 18 | CC(C)c1noc(N2CCC([C@H]3C[C@@H]3CCOc3ccc(S(C)(=O)=O)cn3)CC2)n1 [Example 110, 3-isopropyl-5-(4-((1R,2R)-2-(2-(5-(methylsulfonyl)pyridin-2-yloxy)ethyl)cyclopropyl)piperidin-1-yl)-1,2,4-oxadiazole]
16 | 17 | CC(C)c1noc(N2CCC([C@H]3C[C@@H]3CCOc3ccc(S(C)(=O)=O)cc3F)CC2)n1 [Example 85, 5-(4-((1R,2R)-2-(2-(2-fluoro-4-(methylsulfonyl)phenoxy)ethyl)cyclopropyl)piperidin-1-yl)-3-isopropyl-1,2,4-oxadiazole]
17 | 17 | CCc1cnc(N2CCC([C@@H]3C[C@H]3CCOc3cc(F)cc(F)c3CC(=O)N3CCC3)CC2)nc1 [Example 118, 1-(azetidin-1-yl)-2-(2-(2-((1S,2S)-2-(1-(5-ethylpyrimidin-2-yl)piperidin-4-yl)cyclopropyl)ethoxy)-4,6-difluorophenyl)ethanone]
18 | 16 | CC(C)c1noc(N2CCC([C@@H]3C[C@H]3CCNc3ncc(-n4cnnn4)cn3)CC2)n1 [Example 126, N-(2-((1S,2R)-2-(1-(3-isopropyl-1,2,4-oxadiazol-5-yl)piperidin-4-yl)cyclopropyl)ethyl)-5-(1H-tetrazol-1-yl)pyrimidin-2-amine]
19 | 15 | COCc1cnc(N2CCC([C@H]3C[C@@H]3CCOc3ccc(CC(=O)N4CCC4)cc3F)CC2)nc1 [Example 63, 1-(azetidin-1-yl)-2-(3-fluoro-4-(2-((1R,2R)-2-(1-(5-(methoxymethyl)pyrimidin-2-yl)piperidin-4-yl)cyclopropyl)ethoxy)phenyl)ethanone]
20 | 15 | COCc1cnc(N2CCC([C@H]3C[C@@H]3CCOc3ccc(S(C)(=O)=O)c(F)c3)CC2)nc1 [Example 33, 2-(4-((1R,2R)-2-(2-(3-fluoro-4-(methylsulfonyl)phenoxy)ethyl)cyclopropyl)piperidin-1-yl)-5-(methoxymethyl)pyrimidine]
21 | 12 | CCc1cnc(N2CCC([C@H]3C[C@@H]3CCOc3cc(F)cc(F)c3CC(=O)N(C)C)CC2)nc1 [Example 117, 2-(2-(2-((1R,2R)-2-(1-(5-ethylpyrimidin-2-yl)piperidin-4-yl)cyclopropyl)ethoxy)-4,6-difluorophenyl)-N,N-dimethylacetamide]
22 | 10 | CCc1cnc(N2CCC([C@H]3C[C@@H]3CCOc3ccc(CC(=O)N4CCC4)cn3)CC2)nc1 [Example 115, 1-(azetidin-1-yl)-2-(6-(2-((1R,2R)-2-(1-(5-ethylpyrimidin-2-yl)piperidin-4-yl)cyclopropyl)ethoxy)pyridin-3-yl)ethanone]
23 | 8.8 | CC1(OC(=O)N2CCC([C@H]3C[C@@H]3COCc3ccc(S(C)(=O)=O)cc3F)CC2)CC1 [Example 14, 1-methylcyclopropyl 4-((1R,2S)-2-((2-fluoro-4-(methylsulfonyl)benzyloxy)methyl)cyclopropyl)piperidine-1-carboxylate]
24 | 6.8 | Fc1cc(OCC[C@H]2C[C@@H]2C2CCN(c3ncc(Cl)cn3)CC2)ccc1-n1cnnn1 [Example 37, 5-chloro-2-(4-((1R,2R)-2-(2-(3-fluoro-4-(1H-tetrazol-1-yl)phenoxy)ethyl)cyclopropyl)piperidin-1-yl)pyrimidine]
25 | 5.3 | CCc1cnc(N2CCC([C@H]3C[C@@H]3CCOc3ccc(-n4cnnn4)c(F)c3)CC2)nc1 [Example 38, 5-ethyl-2-(4-((1R,2R)-2-(2-(3-fluoro-4-(1H-tetrazol-1-yl)phenoxy)ethyl)cyclopropyl)piperidin-1-yl)pyrimidine]
26 | 4.2 | CC1(OC(=O)N2CCC([C@@H]3C[C@H]3CCOc3ccc(CC(=O)N4CCC4)c(F)c3)CC2)CC1 [Example 97, 1-methylcyclopropyl 4-((1S,2S)-2-(2-(4-(2-(azetidin-1-yl)-2-oxoethyl)-3-fluorophenoxy)ethyl)cyclopropyl)piperidine-1-carboxylate]
27 | 0.4 | COCc1cnc(N2CCC([C@H]3C[C@@H]3CCOc3cc(F)c(CC(=O)N4CCC4)c(F)c3)CC2)nc1 [Example 56, 1-(azetidin-1-yl)-2-(2,6-difluoro-4-(2-((1R,2R)-2-(1-(5-(methoxymethyl)pyrimidin-2-yl)piperidin-4-yl)cyclopropyl)ethoxy)phenyl)ethanone]
